PubChem BioAssay AID1963845 (Molecular Pharmacology Branch, DTP, NCI, 2024)

Test system: 429239-143-T-J1-PDC complex spheroid viability
Test: Anticancer human tumor 429239-143-T-J1-PDC patient-derived small cell lung carcinoma cell line growth inhibition [POLQ]
Conditions: for IC50: curve of first compound; for viability, T/C: stronger effect = lower value
Procedure, shortened: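 PDC + HUVEC + MSC complex spheroids; POLQ inhibitors ± partner drugs; top conc. at/near clinical Cmax, else 10 microM (SN-38 1 microM), half-log dilutions; 37 degrees C, 5% CO2.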

[1] = second compound 0.0316 µM, first compound 0.0316 µM
[2] = second compound 0.0316 µM, first compound 0.1 µM
[3] = second compound 0.1 µM, first compound 0.0316 µM
[4] = second compound 0.1 µM, first compound 0.1 µM
[5] = second compound 0.316 µM, first compound 0.0316 µM
[6] = second compound 0.316 µM, first compound 0.1 µM
[7] = second compound 1 µM, first compound 0.0316 µM
[8] = second compound 1 µM, first compound 0.1 µM
[9] = second compound 3.16 µM, first compound 0.0316 µM
[10] = second compound 3.16 µM, first compound 0.1 µM
[11] = second compound 10 µM, first compound 0.0316 µM
[12] = second compound 10 µM, first compound 0.1 µM
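Further: luminescence signal used as surrogate measure of viable cells; spheroids exposed to compounds for seven days before readout.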
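Wherever viability, T/C is given: 100% = DMSO vehicle control viability as luminescence relative to vehicle.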

SMILES: CCc1cc2c(N3CCc4c(cc(Cn5ccnc5)cc4-c4cn(C)nc4C(F)(F)F)C3=O)ccnc2c(OC)n1 + Nc1ccc(C#CCN(C(=O)Cc2ncc(C(F)(F)F)cc2C(F)(F)F)c2ccc(F)cc2)nn1
- IC50 (second compound 0.0316 µM): 9.75 µM
- IC50 (second compound 0.1 µM): > 10 µM
- IC50 (second compound 0.316 µM): 7.86 µM
- IC50 (second compound 1 µM): 9.55 µM
- IC50 (second compound 3.16 µM): > 10 µM
- IC50 (second compound 10 µM): > 10 µM
- viability, T/C [1]: 100%
- viability, T/C [2]: 94.9%
- viability, T/C (second compound 0.0316 µM, first compound 0.316 µM): 85.2%
- viability, T/C (second compound 0.0316 µM, first compound 1 µM): 80.7%
- viability, T/C (second compound 0.0316 µM, first compound 3.16 µM): 86.4%
- viability, T/C (second compound 0.0316 µM, first compound 10 µM): 48%
- viability, T/C [3]: 93.7%
- viability, T/C [4]: 96.8%
- viability, T/C (second compound 0.1 µM, first compound 0.316 µM): 92.5%
- viability, T/C (second compound 0.1 µM, first compound 1 µM): 74.1%
- viability, T/C (second compound 0.1 µM, first compound 3.16 µM): 68.5%
- viability, T/C (second compound 0.1 µM, first compound 10 µM): 49.2%
- viability, T/C [5]: 112%
- viability, T/C [6]: 113%
- viability, T/C (second compound 0.316 µM, first compound 0.316 µM): 97.8%
- viability, T/C (second compound 0.316 µM, first compound 1 µM): 83.8%
- viability, T/C (second compound 0.316 µM, first compound 3.16 µM): 69.9%
- viability, T/C (second compound 0.316 µM, first compound 10 µM): 44.7%
- viability, T/C [7]: 108%
- viability, T/C [8]: 94.4%
- viability, T/C (second compound 1 µM, first compound 0.316 µM): 94.4%
- viability, T/C (second compound 1 µM, first compound 1 µM): 84.6%
- viability, T/C (second compound 1 µM, first compound 3.16 µM): 74.3%
- viability, T/C (second compound 1 µM, first compound 10 µM): 47.6%
- viability, T/C [9]: 108%
- viability, T/C [10]: 96%
- viability, T/C (second compound 3.16 µM, first compound 0.316 µM): 93.1%
- viability, T/C (second compound 3.16 µM, first compound 1 µM): 93.6%
- viability, T/C (second compound 3.16 µM, first compound 3.16 µM): 70.9%
- viability, T/C (second compound 3.16 µM, first compound 10 µM): 54%
- viability, T/C [11]: 103%
- viability, T/C [12]: 93%
- viability, T/C (second compound 10 µM, first compound 0.316 µM): 88.5%
- viability, T/C (second compound 10 µM, first compound 1 µM): 79.1%
- viability, T/C (second compound 10 µM, first compound 3.16 µM): 71%
- viability, T/C (second compound 10 µM, first compound 10 µM): 48.2%

SMILES: Cn1ncnc1[C@H]1c2n[nH]c(=O)c3cc(F)cc(c23)N[C@@H]1c1ccc(F)cc1 + Nc1ccc(C#CCN(C(=O)Cc2ncc(C(F)(F)F)cc2C(F)(F)F)c2ccc(F)cc2)nn1
- IC50 (second compound 0.0316 µM): > 0.1 µM
- IC50 (second compound 0.1 µM): > 0.1 µM
- IC50 (second compound 0.316 µM): > 0.1 µM
- IC50 (second compound 1 µM): > 0.1 µM
- IC50 (second compound 3.16 µM): > 0.1 µM
- IC50 (second compound 10 µM): > 0.1 µM
- viability, T/C (second compound 0.0316 µM, first compound 0.000316 µM): 101%
- viability, T/C (second compound 0.0316 µM, first compound 0.001 µM): 104%
- viability, T/C (second compound 0.0316 µM, first compound 0.00316 µM): 89.8%
- viability, T/C (second compound 0.0316 µM, first compound 0.01 µM): 83.4%
- viability, T/C [1]: 83.1%
- viability, T/C [2]: 60.8%
- viability, T/C (second compound 0.1 µM, first compound 0.000316 µM): 101%
- viability, T/C (second compound 0.1 µM, first compound 0.001 µM): 104%
- viability, T/C (second compound 0.1 µM, first compound 0.00316 µM): 95.3%
- viability, T/C (second compound 0.1 µM, first compound 0.01 µM): 83.1%
- viability, T/C [3]: 84.7%
- viability, T/C [4]: 60.4%
- viability, T/C (second compound 0.316 µM, first compound 0.000316 µM): 104%
- viability, T/C (second compound 0.316 µM, first compound 0.001 µM): 101%
- viability, T/C (second compound 0.316 µM, first compound 0.00316 µM): 93.7%
- viability, T/C (second compound 0.316 µM, first compound 0.01 µM): 83.8%
- viability, T/C [5]: 79.8%
- viability, T/C [6]: 67.1%
- viability, T/C (second compound 1 µM, first compound 0.000316 µM): 111%
- viability, T/C (second compound 1 µM, first compound 0.001 µM): 112%
- viability, T/C (second compound 1 µM, first compound 0.00316 µM): 95.1%
- viability, T/C (second compound 1 µM, first compound 0.01 µM): 87.8%
- viability, T/C [7]: 81.7%
- viability, T/C [8]: 58%
- viability, T/C (second compound 3.16 µM, first compound 0.000316 µM): 106%
- viability, T/C (second compound 3.16 µM, first compound 0.001 µM): 91.4%
- viability, T/C (second compound 3.16 µM, first compound 0.00316 µM): 94.2%
- viability, T/C (second compound 3.16 µM, first compound 0.01 µM): 95.2%
- viability, T/C [9]: 75.8%
- viability, T/C [10]: 69.8%
- viability, T/C (second compound 10 µM, first compound 0.000316 µM): 108%
- viability, T/C (second compound 10 µM, first compound 0.001 µM): 91.7%
- viability, T/C (second compound 10 µM, first compound 0.00316 µM): 101%
- viability, T/C (second compound 10 µM, first compound 0.01 µM): 87.9%
- viability, T/C [11]: 74.2%
- viability, T/C [12]: 60.2%
